Consider 3 compounds from ChEMBL document CHEMBL1145681, “Inhibitory effect of dehydroevodiamine and evodiamine on nitric oxide production in cultured murine macrophages” (J Nat Prod, 1997).

Molecules are shown by their SMILES. Calls of active or inactive are those of the source. The calls are words filed in the database; no cut-off is given here.

Data set [1] deals with RAW264.7. Put plainly: Antiinflammatory activity in IFN-gamma/LPS-stimulated mouse RAW264.7 cells assessed as inhibition of NO production at 10 uM treated before 30 mins of IFN-gamma stimulation in presence of LPS measured after 19 hrs relative to control. Type of data set: functional. To be noted: values are per cent of control.
In data set [2] the test system is RAW264.7. Kind of data set: Antiinflammatory activity in IFN-gamma/LPS-stimulated mouse RAW264.7 cells assessed as inhibition of NO production at 50 uM treated before 30 mins of IFN-gamma stimulation in presence of LPS measured after 19 hrs relative to control. It counts as functional. Conditions: values are per cent of control.
The subject of data set [3] is RAW264.7. Put plainly: Antiinflammatory activity in IFN-gamma/LPS-stimulated mouse RAW264.7 cells assessed as inhibition of NO production at 100 uM treated before 30 mins of IFN-gamma stimulation in presence of LPS measured after 19 hrs relative to control. It counts as functional. To be noted: values are per cent of control.
The subject of data set [4] is RAW264.7. Put plainly: Cytotoxicity against IFN-gamma/LPS-stimulated mouse RAW264.7 cells at 10 to 100 uM treated after 3 hrs of IFN-gamma stimulation and before 30 mins of LPS addition measured after 19 hrs by MTT assay. It counts as cell-based. Conditions: raw264.7, 19 h. (In general: Formazan colour is commonly taken as a measure of viable cells.)
For data set [5], the system named is RAW264.7. Kind of data set: Cytotoxicity against IFN-gamma/LPS-stimulated mouse RAW264.7 cells at 10 to 100 uM treated after 2 hrs of LPS addition measured after 19 hrs by MTT assay. Type of data set: cell-based. To be noted: raw264.7, 19 h.
Data set [6] has as its system RAW264.7. Kind of data set: Antiinflammatory activity in IFN-gamma/LPS-stimulated mouse RAW264.7 cells assessed as inhibition of NO production at 10 uM treated after 18.5 hrs of LPS addition measured after 19 hrs relative to control. Type of data set: functional, cell-based.
For data set [7], the system named is RAW264.7. Put plainly: Antiinflammatory activity in IFN-gamma/LPS-stimulated mouse RAW264.7 cells assessed as inhibition of NO production at 50 uM treated after 18.5 hrs of LPS addition measured after 19 hrs relative to control. It counts as functional, cell-based.
Data set [8] has as its system RAW264.7. Put plainly: Antiinflammatory activity in IFN-gamma/LPS-stimulated mouse RAW264.7 cells assessed as inhibition of NO production at 30 uM treated after 18.5 hrs of LPS addition measured after 19 hrs relative to control. Type of data set: functional, cell-based.
Data set [9] concerns RAW264.7. Kind of data set: Antiinflammatory activity in IFN-gamma/LPS-stimulated mouse RAW264.7 cells assessed as NO production at 10 uM treated after 3 hrs of IFN-gamma stimulation and before 30 mins of LPS addition measured after 19 hrs relative to control.
For data set [10], the system named is RAW264.7. Kind of data set: Antiinflammatory activity in IFN-gamma/LPS-stimulated mouse RAW264.7 cells assessed as NO production at 50 uM treated after 3 hrs of IFN-gamma stimulation and before 30 mins of LPS addition measured after 19 hrs relative to control.
For data set [11], the system named is RAW264.7. Kind of data set: Antiinflammatory activity in IFN-gamma/LPS-stimulated mouse RAW264.7 cells assessed as NO production at 100 uM treated after 3 hrs of IFN-gamma stimulation and before 30 mins of LPS addition measured after 19 hrs relative to control.
The test system of data set [12] is RAW264.7. Put plainly: Antiinflammatory activity in IFN-gamma/LPS-stimulated mouse RAW264.7 cells assessed as inhibition of NO production at 10 uM treated after 2 hrs of LPS addition measured after 19 hrs relative to control; values are per cent of control.
Data set [13] has as its system RAW264.7. Put plainly: Antiinflammatory activity in IFN-gamma/LPS-stimulated mouse RAW264.7 cells assessed as inhibition of NO production at 50 uM treated after 2 hrs of LPS addition measured after 19 hrs relative to control; values are per cent of control.
Data set [14] concerns RAW264.7. Kind of data set: Antiinflammatory activity in IFN-gamma/LPS-stimulated mouse RAW264.7 cells assessed as inhibition of NO production at 100 uM treated after 2 hrs of LPS addition measured after 19 hrs relative to control; values are per cent of control.
In data set [15] the test system is RAW264.7. Put plainly: Antiinflammatory activity in IFN-gamma/LPS-stimulated mouse RAW264.7 cells assessed as inhibition of NO production at 30 uM treated before 30 mins of IFN-gamma stimulation in presence of LPS measured after 19 hrs relative to control. It counts as functional.
In data set [16] the test system is RAW264.7. Put plainly: Antiinflammatory activity in IFN-gamma/LPS-stimulated mouse RAW264.7 cells assessed as inhibition of NO production at 50 uM treated after 3 hrs of IFN-gamma stimulation and before 30 mins of LPS addition measured after 19 hrs relative to control. Type of data set: functional.
Data set [17] concerns RAW264.7. Kind of data set: Antiinflammatory activity in IFN-gamma/LPS-stimulated mouse RAW264.7 cells assessed as inhibition of NO production at 100 uM treated after 3 hrs of IFN-gamma stimulation and before 30 mins of LPS addition measured after 19 hrs relative to control. Type of data set: functional.
Data set [18] relates to RAW264.7. Put plainly: Antiinflammatory activity in IFN-gamma/LPS-stimulated mouse RAW264.7 cells assessed as inhibition of NO production at 30 uM treated after 3 hrs of IFN-gamma stimulation and before 30 mins of LPS addition measured after 19 hrs relative to control. Type of data set: functional, cell-based.
Data set [19] deals with RAW264.7. Put plainly: Cytotoxicity against IFN-gamma/LPS-stimulated mouse RAW264.7 cells at 10 to 100 uM treated after 18.5 hrs of LPS addition measured after 19 hrs by MTT assay. To be noted: raw264.7, 19 h. Type of data set: cell-based.

For `C[n+]1c2n(c(=O)c3ccccc31)CCc1c-2[nH]c2ccccc12` [DEHYDROEVODIAMINE], the response, % of control at 10 µM in data set [1] worked out at 80.6%. In data set [2], the response, % of control at 50 µM worked out at 74.2%. Further, the response, % of control at 100 µM in [3] came to 44%. In addition, the results for the Activity entry in data set [4] and in data set [5] were “Not Active” and “Non-toxic”, respectively. Further, the result in data set [6], in data set [7] and in data set [8] was inactive. For the same compound, the level, % of control at 10 µM in data set [9] is 86.1%. Further, the level, % of control at 50 µM in data set [10] amounted to 78.1%. In data set [11], the level, % of control at 100 µM came to 23.2%. Further, the “NO level, % of control” value in [12] was 84.3%; in data set [13] it was 77%; in [14] it was 24.2%.

By inhibition is commonly meant the change of the read-out against control, counted positive when it falls. In the case of `CN1c2ccccc2C(=O)N2CCc3c([nH]c4ccccc34)[C@@H]21` [EVODIAMINE], the response, % of control at 10 µM in [1] was 79.5%. Further, the response, % of control at 50 µM in data set [2] is 68.3%. The inhibition at 30 µM in data set [15] came to 50.6%. Moreover, the outcome in data set [16], in data set [17] and in data set [18] was inactive.

With `CN1c2ccccc2C(=O)N2CCc3c([nH]c4ccccc34)[C@H]21` [EVODIAMINE], the Activity result is “Not Active” in [4], “Non-toxic” in [5] and “Non-toxic” in data set [19].
